From patent US6124324A, “Thiophene-ethyl thiourea compounds and use” (Hughes Institute, priority 1999, dated 2000)
pIC50: −log10 of the molar value. Like-named read-outs stand apart in the source and are kept apart here.

Key:
[1] = system: HIV-1 strain RT-MDR (V106A); assay: microbe, parasite or virus in culture; assay type: cell-based; conditions: for pIC50: read-out: IC50 RT-MDR (V106A); for effectiveness against RT-MDR versus HTLVIIIB: more effective against RT-MDR than against HTLVIIIB
Description: (§1) In addition, the anti-HIV activity of the compounds was measured by determining their ability to inhibit the replication of the HIV-1 strains HTLVIIIB, RT-MDR, A17, and A17 variant in peripheral blood mononuclear cells (PBMC) from healthy volunteer donors, using the method described in Uckun et.al., 1998, Antimicrobial Agents and Chemotherapy 42:383.
(§2) Normal human peripheral blood mononuclear cells (PBMNC) from HIV-negative donors were cultured 72 hours in RPMI 1640 supplemented with 20% (v/v) heat-inactivated fetal bovine serum (FBS), 3% interleukin-2,2 mM L-glutairine, 25 mM HEPES, 2 μL, NAHCO, […] gentamicin, and 4 Ag/mL phytohemagglutinin prior to exposure to HIV-1 or other HIV strain. The cells were then infected with virus at a multiplicity of infection (MOI) of 0.1 during a one-hour adsorption period at 37° C. in a humidified 5% CO2 atmosphere. Subsequently, cells were cultured in 96-well microplates (100 μL/well; 2×10^6 cells/mL, triplicate wells) in the presence of various inhibitor concentrations. Aliquots of culture supernatants were removed from the wells on the 7 th day after infection for p24 antigen p24 enzyme immunoassays (EIA), as previously described in Erice et al., 1993, Antimicrob. Ag. Chemotherapy 37:385-838. The applied p24 EIA was the unmodified kinetic assay commercially available from Coulter Corporation/Immunotech, Inc. (Westbrook, Me.).
(§3) Percent inhibition of viral replication was calculated by comparing the p24 values from the test substance-treated infected cells with p24 values from untreated infected cells (i.e, virus controls).
(§4) RT-MDR was obtained through the AIDS Research and Reference Reagent Program, from Dr. Bendan Larder, and is described in Larder et al., 1993, Nature, 365, 451-453.

[2] = system: HIV-1 strain A17 variant (Y181C, K103N); assay: microbe, parasite or virus in culture; assay type: cell-based
Description: as §1, §2, §3, §4

HIV-1 strain A17 (Y181C) = assay: microbe, parasite or virus in culture; assay type: cell-based; conditions: for pIC50: read-out: IC50 A17 (Y181C)
Description: as §1, §2
(§5) Percent inhibition of viral replication was calculated by comparing the p24 values from the test substance-treated infected cells with p24 values from untreated infected cells (i.e, virus controls). […]

HIV-1 strain HTLVIIIB [3] = assay: Inhibition of replication of HIV-1 strain HTLVIIIB in PBMC (p24 antigen EIA); assay type: cell-based
Description: as §1, §2, §5

[4] = Microculture Tetrazolium Assay (MTA), cytotoxicity; assay type: cell-based
Description: A Microculture Tetrazolium Assay (MTA), using 2,3-bis(2-methoxy-4-nitro-5-sulfophenyl)-5-[(phenylamino)-carbonyl]-2H-tetrazolium hydroxide (XTT), was performed to evaluate the cytotoxicity of the compounds, using the methods described, for example, in Uckun et.al., 1998, Antimicrobial Agents and Chemotherapy 42:383; and Mao et.al., 1998, Bioorg. Med. Chem. Lett. 8:2213.

[5] = biological target: T1, purified recombinant HIV RT (Human immunodeficiency virus type 1 group M subtype B, UniProt P04585); assay: Purified RT assay, cell-free Quan-T-RT system (scintillation proximity); assay type: biochemical
T1 construct: purified recombinant HIV RT; purchased Amersham, Arlington Heights, Ill; (Quan-T-RT system)
Description: The synthesized compounds were tested for RT inhibitory activity (IC50 [rRT]) against purified recombinant HIV RT using the cell-free Quan-T-RT system (Amersham, Arlington Heights, Ill.), which utilizes the scintillation proximity assay principle as decribed in Bosworth, et al., 1989, Nature 341:167-168. In the assay, a DNA/RNA template is bound to SPA beads via a biotin/strepavidin linkage. The primer DNA is a 16-mer oligo(T) which has been annealed to a poly(A) template. The primer/template is bound to a strepavidin-coated SPA bead.
^3 H-TTP is incorporated into the primer by reverse transcription. In brief, ^3 H-TTP, at a final concentration of 0.5 μCi/sample, was diluted in RT assay buffer (49.5 mM Tris-Cl, pH 8.0, 80 mM KCl, 10 Mm MgCl2, 10 mM DTT, 2.5 mM EGTA, 0.05% Nonidet-P-40), and added to annealed DNA/RNA bound to SPA beads. The compound being tested was added to the reaction mixture at 0.001 μM-100 μM concentrations. […] The reaction was stopped by addition of 0.2 ml of 120 mM EDTA. The samples were counted in an open window using a Beckman LS 7600 instrument and IC50 values were calculated by comparing the measurements to untreated samples.

[6] = system: NNI-resistant HIV-1 strains; conditions: earlier publication (Mao et al., 1999); cited from earlier work
HIV-1 strain HTLVIIIB [7] = conditions: earlier publication (Mao et al.), cited from earlier work
[8] = Human immunodeficiency virus 1, PBMC
[9] = Human immunodeficiency virus 1, PBMC, read-out: IC50 A17 Varient (Y181C, K103N)
[10] = Human immunodeficiency virus 1, IIIB, inhibition of p24 antigen production in PBMC, read-out: IC50 HTLV IIIB
[11] = XTT cytotoxicity, read-out: CC50 MTA
[12] = IC50 rRT, Table 1 and text; recombinant HIV RT
[13] = Table 1 and text; recombinant HIV RT; read-out: IC90 rRT
[14] = Human immunodeficiency virus 1, IIIB, PBMC, read-out: IC50 HTLV IIIB
[15] = IC50 rRT, Table 2; recombinant HIV RT
[16] = inhibition of p24 antigen production in PBMC
[17] = inhibition of p24 antigen production in PBMC, read-out: IC50 A17 Varient (Y181C, K103N)

Fc1ccccc1CCNC(=S)Nc1ccc(Br)cn1 [HI-240, N-[2-(2-fluorophenethyl)]-N'-[2-(5-bromopyridyl)]thiourea]
pIC50 [1, 8]: 8.30 | pIC50 [2, 9]: 4.39 | pIC50 (HIV-1 strain A17 (Y181C); [8]): 6.70 | pIC50 (HIV-1 strain HTLVIIIB [3]; [10]): > 9.00 | CC50 [4, 11]: > 100 µM

CCOCn1c(Cc2ccccc2)c(C(C)C)c(=O)[nH]c1=O [MKC-442, reference compound]
pIC50 [1, 8]: 6.52 | CC50 [4]: > 100 µM

S=C(NCc1ccc2c(c1)OCO2)Nc1ccc(Br)cn1 [HI-257, N-[2-(1-piperonyl)]-N'-[2-(5-bromopyridyl)]thiourea]
pIC50 [5, 12]: 6.15 | IC90 [5, 13]: > 100 µM

S=C(NCCc1ccccn1)Nc1ccc(Br)cn1 [Trovirdine, reference compound]
pIC50 [1, 8]: 7.70 | pIC50 [2, 9]: < 4.00 | pIC50 (HIV-1 strain A17 (Y181C); [8]): 6.30 | pIC50 (HIV-1 strain HTLVIIIB [3]; [14]): 8.15 | IC90 [5, 13]: 12 µM | inhibited recombinant RT in vitro ([5]; recombinant RT in vitro): more than 90% | CC50 [4]: > 100 µM

S=C(NCc1ccco1)Nc1ccc(Br)cn1 [HI-503, N-[2-(5-Bromopyridinyl)]-N'-[2-(2-Furylmethyl)]thiourea]
pIC50 [5, 12]: 5.92 | IC90 [5, 13]: > 100 µM

S=C(NCCc1c[nH]c2ccccc12)Nc1ccc(Br)cn1 [HI-442, N-[2-(5-Bromopyridinyl)]-N'-[2-(3-Indolylethyl)]thiourea]
pIC50 [5, 12]: 6.05 | IC90 [5, 13]: > 100 µM

S=C(NCCc1cnc[nH]1)Nc1ccc(Br)cn1 [HI-436, N-[2-(5-Bromopyridinyl)]-N'-[2-(2-Imidazolylethyl)]thiourea]
pIC50 [5, 12]: < 4.00 | IC90 [5, 13]: > 100 µM

S=C(NCCN1CCNCC1)Nc1ccc(Br)cn1 [HI-258, N-[2-(1-piperizinylethyl)]-N'-[2-(5-bromopyridyl)]thiourea]
inhibition of replication of NNI-resistant HIV-1 strains [6]: neither compound inhibited the replication | antiviral potency relative to trovirdine (HIV-1 strain HTLVIIIB [7]; HTLVIIIB): more potent than trovirdine | abrogated the replication of HTLVIIIB (HIV-1 strain HTLVIIIB [7]; human PBMC): nanomolar concentrations

S=C(NCCN1CCCC1)Nc1ccc(Br)cn1 [HI-230, N-[2-(1-pyrolidylethyl)]-N'-[2-(5-bromopyridyl)]thiourea]
pIC50 [5, 12]: 5.31 | IC90 [5, 13]: > 100 µM

S=C(NCCN1CCOCC1)Nc1ccc(Br)cn1 [HI-276, N-[2-(5-Bromopyridinyl)]-N'-[2-(4-Morpholinoethyl)]thiourea]
pIC50 [5, 12]: < 4.00 | IC90 [5, 13]: > 100 µM

CC(C)Nc1cccnc1N1CCN(C(=O)c2cc3cc(NS(C)(=O)=O)ccc3[nH]2)CC1 [Delavirdine, reference compound]
pIC50 [1, 8]: 6.40 | pIC50 [2, 9]: < 4.00 | pIC50 (HIV-1 strain A17 (Y181C); [8]): 4.30 | pIC50 (HIV-1 strain HTLVIIIB [3]; [10]): 8.05

S=C(NCCc1cccs1)Nc1ccc(Br)cn1 [HI-443, N-[2-(5-Bromopyridinyl)]-N'-[2-(2-Thiophenylethyl)]thiourea]
pIC50 [1, 8]: 8.40 | effectiveness against RT-MDR versus HTLVIIIB [1]: ten | effectiveness against RT-MDR versus HTLVIIIB ([1]; 10080 min): 10 times | potency against RT-MDR relative to AZT ([1]; more potent than AZT): 50 times | potency against RT-MDR relative to HI-172 ([1]; more potent than HI-172): 25,000 times | potency against RT-MDR relative to HI-240 ([1]; more potent than HI-240): 1.25 times | potency against RT-MDR relative to MKC-442 ([1]; more potent than MKC-442): 75 times | potency against RT-MDR relative to delavirdine ([1]; more potent than delavirdine): 100 times | potency against RT-MDR relative to nevirapine ([1]; more potent than nevirapine): 1250 times | potency against RT-MDR relative to trovirdine ([1]; more potent than trovirdine): 5 times | pIC50 ([2]; Human immunodeficiency virus 1, PBMC, read-out: IC50, A17 variant replication): 5.49 | pIC50 [2, 9]: 5.49 | potency against A17 variant versus HTLVIIIB ([2]; fold lower potency than HTLVIIIB, 10080 min): 100 fold | pIC50 (HIV-1 strain A17 (Y181C); [8]): 7.32 | potency against A17 relative to HI-172 (HIV-1 strain A17 (Y181C); more potent than HI-172): 2083 times | potency against A17 relative to HI-240 (HIV-1 strain A17 (Y181C); more potent than HI-240): 4.2 times | potency against A17 relative to delavirdine (HIV-1 strain A17 (Y181C); more potent than delavirdine): 1042 times | potency against A17 relative to nevirapine (HIV-1 strain A17 (Y181C); more potent than nevirapine): 2083 times | potency against A17 relative to trovirdine (HIV-1 strain A17 (Y181C); more potent than trovirdine): 10 times | pIC50 (HIV-1 strain HTLVIIIB [3]; [14]): 7.52 | pIC50 (HIV-1 strain HTLVIIIB [3]; Human immunodeficiency virus 1, PBMC, read-out: average IC50, HTLVIIIB replication): 7.52 | IC50 HTLVIIIB relative to HI-172 (HIV-1 strain HTLVIIIB [3]; times higher than IC50 of HI-172): 30 times | IC50 HTLVIIIB relative to trovirdine (HIV-1 strain HTLVIIIB [3]; times higher than IC50 of trovirdine): 5 times | pIC50 [5, 12]: 6.10 | pIC50 [5, 15]: 5.28 | IC90 [5, 13]: 15 µM | IC90 ([5]; read-out: IC90 rRT; Table 1 and text; recombinant HIV RT): 12 µM | inhibited recombinant RT in vitro ([5]; recombinant RT in vitro): more than 90% | CC50 [4, 11]: > 100 µM

Cc1ccnc2c1NC(=O)c1cccnc1N2C1CC1 [Nevirapine, reference compound]
pIC50 [1, 16]: 5.30 | pIC50 [2, 17]: < 4.00 | pIC50 (HIV-1 strain A17 (Y181C); [16]): < 4.00 | pIC50 (HIV-1 strain HTLVIIIB [3]; [10]): 7.47

CN1CCCC1CCNC(=S)Nc1ccc(Br)cn1 (stereo not shown) [HI-206, N-[2-(1-methyl-2-pyrrolidinylethyl)]-N'-[2-(5 bromopyridyl)]thiourea]
pIC50 [5, 12]: < 4.00 | IC90 [5, 13]: > 100 µM

Cc1cn([C@H]2C[C@H](N=[N+]=[N-])[C@@H](CO)O2)c(=O)[nH]c1=O [AZT, reference compound]
pIC50 [1, 16]: 6.70 | pIC50 [2, 17]: 8.40 | pIC50 (HIV-1 strain A17 (Y181C); [16]): 8.22 | pIC50 [5, 15]: < 4.00 | CC50 [4, 11]: > 100 µM
